Reference: patent publication US7999011B2, “Method for cardioprotection and neuroprotection by intravenous administration of halogenated volatile anesthetics” (Baxter International Inc., priority 2002, dated 2011)
Entries after “also recorded” stand apart in the source; their conditions may differ.

Experiments:
[1] = system: myocardial ischemia-reperfusion injury; experiment: Myocardial infarct size following ischemia and reperfusion (30 min LAD occlusion, 3 h reperfusion); assay type: in vivo, rabbit; details: for infarct size plotted as a function of area at risk, versus control regression line: FIGS. 4A, 4B, 5A, 5B; for cardioprotection (protection against myocardial ischemia-reperfusion injury): i.v. emulsion prior to coronary artery occlusion; for IF/AAR: infarct size as percentage of area at risk, i.v. emulsion 10 ml/h 30 min, stopped 30 min before occlusion; for IF WT: infarct weight
Description: These experiments were designed to characterize the effects of different HVAs (enflurane, isoflurane, sevoflurane, and desflurane) administered intravenously in an emulsion on myocardial infarct size following ischemia and reperfusion in rabbits.
Male New Zealand white rabbits weighing between 2.5 and 3.0 kg were anesthetized with intravenous sodium pentobarbital (30 mg/kg). Additional doses of pentobarbital were titrated as required to assure that pedal and palpebral reflexes were absent throughout the experiment. A tracheotomy was performed through a ventral midline incision, and the trachea was cannulated. The rabbits were ventilated with positive pressure using an air-oxygen mixture (FiO2=0.33). Arterial blood gas tensions and acid-base status were maintained within a normal physiological range (pH 7.35-7.45, PaCO2 25-40 mmHg, and PaO2 90-150 mmHg) by adjusting the respiratory rate or tidal volume. Body temperature was maintained with a heating blanket. Heparin-filled catheters were inserted into the right carotid artery and the left jugular vein for measurement of arterial blood pressure and fluid or drug administration, respectively. Maintenance fluids consisted of 0.9% saline (15 ml/kg/h) that were continued for the duration of the experiment.
A left thoracotomy was performed at the fourth intercostal space, and the heart was suspended in a pericardial cradle. A prominent branch of the left anterior descending coronary artery (LAD) was selected, and a silk ligature was placed around this artery approximately halfway between the base and apex for the production of coronary artery occlusion and reperfusion in myocardial infarct size experiments. Each rabbit was anticoagulated with 500 U of heparin immediately before LAD occlusion. Coronary artery occlusion was verified by the presence of epicardial cyanosis and regional dyskinesia in the ischemic zone, and reperfusion was confirmed by observing an epicardial hyperemic response. Hemodynamics were continuously recorded on a polygraph throughout experimentation. After the surgical preparation, 30 min of stabilization were allowed.
The experimental design for the experiments is illustrated in FIG. 1. Rabbits were randomly assigned to one of six experimental groups: a control group (0.9% saline infusion), a vehicle group (drug lipid vehicle), or one of four anesthetic groups (emulsified desflurane, isoflurane, enflurane, or sevoflurane). The vials of anesthetics were stored at 4° C. as prepared in Example 1. After opening, the vial was left in a water bath at 37° C. for 2 h. Anesthetics were directly poured into the syringe without using negative pressure suction.
(§1) Baseline measurements of systemic hemodynamics, arterial blood gas tensions, and blood concentrations of anesthetic agent were performed 30 min after instrumentation was completed. Rabbits received 0.9% saline, drug lipid vehicle (10 ml/h), or intravenous volatile anesthetic (10 ml/h) for 30 min. Infusions were discontinued 30 min prior to coronary occlusion (memory period). Blood concentrations of anesthetic agents were performed at baseline, at the end of anesthetic infusion, and at the end of the memory period just before coronary occlusion). HVA concentrations in blood were determined by gas chromatographic (GC) analysis. All rabbits underwent a 30 min LAD occlusion followed by 3 h reperfusion.
At the end of each experiment, the LAD was reoccluded and 3 ml of Patent blue dye was injected intravenously. The left ventricular area at risk for infarction was separated from surrounding normal areas (stained blue), and the two regions were incubated at 37° C. for 20 to 30 min in 1% 2,3,5-triphenyltetrazolium chloride in 0.1 M phosphate buffer adjusted to pH 7.4. After overnight storage in 10% formaldehyde, infarcted and noninfarcted myocardium within the area at risk were carefully separated and weighed. Infarct size was expressed as a percentage of the area at risk. […]

[2] = Blood concentration of anesthetics by GC and conversion to MAC-equivalents; assay type: in vivo, rabbit
Description: as §1
Blood concentrations as measured by GC were converted to their MAC-equivalent values by calculations described below. Initially “n”, or the number of moles of HVA in 1 L of alveolar gas during exposure to 1.0 MAC of the HVA was calculated. The ideal gas law n=PV/RT is used to calculate the number of moles of HVA present at 1 MAC in the alveolar gas where: V=1 L, T=273+37=310° (K); and R=0.0821 (universal gas constant). P or pressure was determined taking into account the vapor pressure of water at 37° C. which is 47.1 torr, and the volume percent of the HVA. Volume percentages of HVAs (MAC values) were obtained from literature values determined in rabbits (Scheller et al. Can. J. Anaesth. 1988, 35: 133-136; Drummond, J C Anesthesiology 1985; 62: 336-8, and Doorley et al. Anesthesiology 1988; 69, 89-91), and are presented in Table 8.
The number of moles of the HVA in 1 L at 37° C. at 1 MAC in rabbits was then used to determine the concentration of the HVA present in blood by using known blood/gas partition values (also known as λ). Blood gas partition values for the HVAs used in the study are show in Table 8. The value for “x” (or the equivalent blood concentration of the HVA at 1 MAC at 37° C. in rabbit) is then determined by the equation: x=λn
To express a measured blood concentration of an HVA as a MAC-equivalent value, the measured blood concentration is divided by x. The MAC equivalent values shown in Table 8 were calculated according to the above from the blood concentrations observed (see Table 7).

[3] = blood/gas; cited from earlier work
[4] = End-tidal gas analysis; assay type: in vivo, rabbit; details: for EtHalogenated: end-tidal
Description: as §1
Statistical analysis of data within and between groups was performed with analysis of variance (ANOVA) for repeated measures followed by Student-Newman-Keuls test. Changes between groups were considered statistically significant when the p value was less than 0.05. All data are expressed as mean±SEM.

[5] = literature values determined in rabbits; cited from earlier work
[6] = Infusion (end of 30 min, 10 ml/h i.v. infusion)
[7] = Memory (30 min after infusion, just before coronary occlusion)
[8] = measured blood concentration divided by x

FC(F)OC(F)C(F)(F)F (centres unmarked) [DES, desflurane]
infarct size plotted as a function of area at risk, versus control regression line [1]: infarct size comparable to controls
cardioprotection (protection against myocardial ischemia-reperfusion injury) [1]: unable to confer cardioprotection; also recorded: did not confer cardioprotection
IF/AAR [1]: 38.5 ± 6.7%
IF WT [1]: 0.50 ± 0.15 g
Blood Concentration ([2]; Baseline): 0 µM
Blood Concentration [2, 6]: 180 ± 30 µM
Blood Concentration [2, 7]: 30 ± 20 µM
Observed Blood Concentration following 30 min, 10 mL/h Infusion ([2]; i.v. emulsion): 0.18 mM
Observed Blood Concentration following 30 min, 10 mL/h Infusion [2, 8]: 0.13 MAC-Equivalents
Partition Coefficient ("λ") [3]: 0.42
EtCO2 ([4]; Baseline): 31 ± 2 mmHg
EtCO2 ([4]; Infusion): 30 ± 2 mmHg
EtCO2 ([4]; Ischemia 30 min): 26 ± 3 mmHg
EtCO2 ([4]; Memory): 28 ± 3 mmHg
EtCO2 ([4]; Reperfusion 1 h): 29 ± 4 mmHg
EtCO2 ([4]; Reperfusion 2 h): 28 ± 3 mmHg
EtCO2 ([4]; Reperfusion 3 h): 29 ± 3 mmHg
EtHalogenated ([4]; Baseline): 0%
EtHalogenated ([4]; Infusion): 0.37 ± 0.03 %
EtHalogenated ([4]; Ischemia 30 min): 0.01 ± 0.00%
EtHalogenated ([4]; Memory): 0.03 ± 0.01%
EtHalogenated ([4]; Reperfusion 1 h): 0.00 ± 0.00%
EtHalogenated ([4]; Reperfusion 2 h): 0.00 ± 0.00%
EtHalogenated ([4]; Reperfusion 3 h): 0.00 ± 0.00%
Average MAC [5]: 8.9 % v/v

FC(F)OC(F)(F)C(F)Cl (centres unmarked) [ENF, enflurane]
infarct size plotted as a function of area at risk, versus control regression line [1]: infarcts were smaller than in the control group
cardioprotection (protection against myocardial ischemia-reperfusion injury) ([1]; listed as Enflurane): provided protection against myocardial ischemia-reperfusion injury
cardioprotection (protection against myocardial ischemia-reperfusion injury) ([1]; listed as enflurane): adequate protection against myocardial ischemia-reperfusion injury; also recorded: significant reduction in the myocardial infarct size
IF/AAR [1]: 20.0 ± 2.8 %
IF WT [1]: 0.21 ± 0.02 g
Blood Concentration ([2]; Baseline): 0 µM
Blood Concentration [2, 6]: 310 ± 30 µM
Blood Concentration [2, 7]: 60 ± 10 µM
Observed Blood Concentration following 30 min, 10 mL/h Infusion ([2]; i.v. emulsion): 0.31 mM
Observed Blood Concentration following 30 min, 10 mL/h Infusion [2, 8]: 0.15 MAC-Equivalents
Partition Coefficient ("λ") [3]: 1.9
EtCO2 ([4]; Baseline): 36 ± 2 mmHg
EtCO2 ([4]; Infusion): 37 ± 2 mmHg
EtCO2 ([4]; Ischemia 30 min): 33 ± 3 mmHg
EtCO2 ([4]; Memory): 34 ± 2 mmHg
EtCO2 ([4]; Reperfusion 1 h): 33 ± 3 mmHg
EtCO2 ([4]; Reperfusion 2 h): 33 ± 3 mmHg
EtCO2 ([4]; Reperfusion 3 h): 35 ± 3 mmHg
EtHalogenated ([4]; Baseline): 0%
EtHalogenated ([4]; Infusion): 0.27 ± 0.02%
EtHalogenated ([4]; Ischemia 30 min): 0.00 ± 0.00%
EtHalogenated ([4]; Memory): 0.02 ± 0.01%
EtHalogenated ([4]; Reperfusion 1 h): 0.00 ± 0.00%
EtHalogenated ([4]; Reperfusion 2 h): 0.00 ± 0.00%
EtHalogenated ([4]; Reperfusion 3 h): 0.00 ± 0.00%
Average MAC [5]: 2.86 % v/v

FC(F)OC(Cl)C(F)(F)F (centres unmarked) [ISO, isoflurane]
infarct size plotted as a function of area at risk, versus control regression line [1]: infarcts were smaller than in the control group
cardioprotection (protection against myocardial ischemia-reperfusion injury) [1]: provided protection against myocardial ischemia-reperfusion injury; also recorded: adequate protection against myocardial ischemia-reperfusion injury; also recorded: significant reduction in the myocardial infarct size
IF/AAR [1]: 18.1 ± 2.6 %
IF WT [1]: 0.18 ± 0.03 g
Blood Concentration ([2]; Baseline): 0 µM
Blood Concentration [2, 6]: 180 ± 60 µM
Blood Concentration [2, 7]: 40 ± 20 µM
Observed Blood Concentration following 30 min, 10 mL/h Infusion ([2]; i.v. emulsion): 0.18 mM
Observed Blood Concentration following 30 min, 10 mL/h Infusion [2, 8]: 0.17 MAC-Equivalents
Partition Coefficient ("λ") [3]: 1.4
EtCO2 ([4]; Baseline): 34 ± 1 mmHg
EtCO2 ([4]; Infusion): 34 ± 1 mmHg
EtCO2 ([4]; Ischemia 30 min): 30 ± 2 mmHg
EtCO2 ([4]; Memory): 33 ± 2 mmHg
EtCO2 ([4]; Reperfusion 1 h): 27 ± 2 mmHg
EtCO2 ([4]; Reperfusion 2 h): 28 ± 2 mmHg
EtCO2 ([4]; Reperfusion 3 h): 30 ± 2 mmHg
EtHalogenated ([4]; Baseline): 0%
EtHalogenated ([4]; Infusion): 0.31 ± 0.02%
EtHalogenated ([4]; Ischemia 30 min): 0.00 ± 0.00%
EtHalogenated ([4]; Memory): 0.02 ± 0.01%
EtHalogenated ([4]; Reperfusion 1 h): 0.00 ± 0.00%
EtHalogenated ([4]; Reperfusion 2 h): 0.00 ± 0.00%
EtHalogenated ([4]; Reperfusion 3 h): 0.00 ± 0.00%
Average MAC [5]: 2.05 % v/v

FCOC(C(F)(F)F)C(F)(F)F [SEVO, sevoflurane]
infarct size plotted as a function of area at risk, versus control regression line [1]: infarcts were smaller than in the control group
cardioprotection (protection against myocardial ischemia-reperfusion injury) [1]: provided protection against myocardial ischemia-reperfusion injury; also recorded: adequate protection against myocardial ischemia-reperfusion injury; also recorded: significant reduction in the myocardial infarct size
IF/AAR [1]: 20.5 ± 2.3 %
IF WT [1]: 0.19 ± 0.04 g
Blood Concentration ([2]; Baseline): 0 µM
Blood Concentration [2, 6]: 150 ± 10 µM
Blood Concentration [2, 7]: 20 ± 0 µM
Observed Blood Concentration following 30 min, 10 mL/h Infusion ([2]; i.v. emulsion): 0.15 mM
Observed Blood Concentration following 30 min, 10 mL/h Infusion [2, 8]: 0.16 MAC-Equivalents
Partition Coefficient ("λ") [3]: 0.69
EtCO2 ([4]; Baseline): 35 ± 1 mmHg
EtCO2 ([4]; Infusion): 36 ± 1 mmHg
EtCO2 ([4]; Ischemia 30 min): 35 ± 1 mmHg
EtCO2 ([4]; Memory): 36 ± 1 mmHg
EtCO2 ([4]; Reperfusion 1 h): 34 ± 1 mmHg
EtCO2 ([4]; Reperfusion 2 h): 33 ± 1 mmHg
EtCO2 ([4]; Reperfusion 3 h): 34 ± 1 mmHg
EtHalogenated ([4]; Baseline): 0%
EtHalogenated ([4]; Infusion): 0.34 ± 0.02%
EtHalogenated ([4]; Ischemia 30 min): 0.04 ± 0.01%
EtHalogenated ([4]; Memory): 0.07 ± 0.01%
EtHalogenated ([4]; Reperfusion 1 h): 0.03 ± 0.01%
EtHalogenated ([4]; Reperfusion 2 h): 0.04 ± 0.01%
EtHalogenated ([4]; Reperfusion 3 h): 0.05 ± 0.01%
Average MAC [5]: 3.7 % v/v
